The values below are quoted from earlier work in publication PMC7686313, “Phase 1 study of mTORC1/2 inhibitor sapanisertib (TAK-228) in advanced solid tumours, with an expansion phase in renal, endometrial or bladder cancer” (British Journal of Cancer, 2020).

Series [1] relates to RCC. Conditions: patients with RCC; cited from earlier work.
Series [2] has as its system refractory clear-cell RCC. Details: method as in earlier work. The settings on record: 10 mg QD; cited from earlier work.

`CO[C@H]1C[C@@H]2CC[C@@H](C)[C@@](O)(O2)C(=O)C(=O)N2CCCC[C@H]2C(=O)O[C@H]([C@H](C)C[C@@H]2CC[C@@H](OC(=O)C(C)(CO)CO)[C@H](OC)C2)CC(=O)[C@H](C)/C=C(\C)[C@@H](O)[C@@H](OC)C(=O)[C@H](C)C[C@H](C)/C=C/C=C/C=C/1C` [temsirolimus]: in series [1], the ORR was 8.6%.
Regarding `CO[C@H]1C[C@@H]2CC[C@@H](C)[C@@](O)(O2)C(=O)C(=O)N2CCCC[C@H]2C(=O)O[C@H]([C@H](C)C[C@@H]2CC[C@@H](OCCO)[C@H](OC)C2)CC(=O)[C@H](C)/C=C(\C)[C@@H](O)[C@@H](OC)C(=O)[C@H](C)C[C@H](C)/C=C/C=C/C=C/1C` [everolimus, reference compound], in series [2], the ORR is given as 13%.
